Here are results for 21 compounds from PMC5840146, “Structure-Activity Relationship Analysis of 3-Phenylcoumarin-Based Monoamine Oxidase B Inhibitors” (Frontiers in Chemistry, 2018).

The target in assay [1] is T1, MAO-B (Homo sapiens, UniProt P27338).
T1 construct: purchased Sigma-Aldrich
T1 sequence (P27338 1-520): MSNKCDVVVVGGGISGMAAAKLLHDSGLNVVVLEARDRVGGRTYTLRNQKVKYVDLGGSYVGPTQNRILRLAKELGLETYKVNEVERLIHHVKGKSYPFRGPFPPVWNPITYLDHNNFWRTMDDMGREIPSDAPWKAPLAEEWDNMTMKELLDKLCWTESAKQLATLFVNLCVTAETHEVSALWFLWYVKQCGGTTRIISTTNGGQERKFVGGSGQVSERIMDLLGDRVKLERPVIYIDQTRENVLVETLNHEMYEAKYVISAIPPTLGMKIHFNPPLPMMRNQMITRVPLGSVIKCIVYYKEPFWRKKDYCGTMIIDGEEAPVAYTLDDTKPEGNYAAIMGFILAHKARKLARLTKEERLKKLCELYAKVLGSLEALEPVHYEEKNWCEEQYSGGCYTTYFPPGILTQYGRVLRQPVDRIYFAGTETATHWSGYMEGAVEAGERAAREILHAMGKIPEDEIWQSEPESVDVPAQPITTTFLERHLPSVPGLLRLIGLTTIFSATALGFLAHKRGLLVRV
Description: MAO-B inhibition of prior 3-phenylcoumarins (literature data). Type of assay: biochemical. The conditions noted are these: LiPE = pIC50 - QPlogPo/w, literature IC50.

Assay [2] has as its target T1, MAO-B. The conditions noted are these: cited from earlier work; for pIC50: MAO-B; for IC50: read-out: MAO-B inhibition IC50.
[3] abbreviates: from literature IC50 ref Matos et al., 2009, 2011a.
Where [4] appears, read: prior 3-phenylcoumarins ref Matos et al., 2009, 2011a.
The mark [5] stands for this setting: from literature IC50 ref Matos et al., 2010.
[6] abbreviates: prior 3-phenylcoumarins ref Matos et al., 2010.
Where [7] appears, read: from literature IC50 ref Matos et al., 2011a.
Setting [8] is: prior 3-phenylcoumarins ref Matos et al., 2011a.
[9] abbreviates: from literature IC50 ref Matos et al., 2011b.
Where [10] appears, read: prior 3-phenylcoumarins ref Matos et al., 2011b.
Setting [11] is: from literature IC50 ref Serra et al., 2012.
[12] abbreviates: prior 3-phenylcoumarins ref Serra et al., 2012.

Where two headings read alike, the source gives them in different places.

`COc1cc(-c2cc3cc(C)ccc3oc2=O)cc(OC)c1OC` [CHEMBL1783716] returned a LiPE at MAO-B [1] of 3.18. For the same compound, the negative logarithm of the IC50 (pIC50) at MAO-B [2] (setting [3]) is recorded as 6.79. The IC50 at MAO-B [2] (setting [4]) was 0.161 µM.

For `COc1cc(OC)cc(-c2cc3cc(C)cc(Br)c3oc2=O)c1` [CHEMBL1221981], the LiPE at MAO-B [1] turned out to be 1.02. For the same compound, the pIC50 on MAO-B [2] (setting [5]) is 5.15. For the same compound, the IC50 at MAO-B [2] (setting [6]) is 7.12 µM.

Regarding `Cc1cc(Br)c2oc(=O)c(-c3ccccc3)cc2c1` [CHEMBL1221930], the LiPE on MAO-B [1] was determined as 0.95. The pIC50 on MAO-B [2] (setting [5]) was 4.96. In addition, the IC50 at MAO-B [2] (setting [6]) is 11.1 µM.

`CC(=O)COc1ccc2oc(=O)c(-c3ccc(C)cc3)cc2c1` [CHEMBL1835226]: at MAO-B [1], the LiPE is 2.32. Also, at MAO-B [2] (setting [7]), the pIC50 is listed as 5.26. Further, the half-inhibitory concentration (IC50) at MAO-B [2] (setting [8]) is 5.52 µM.

As to `Cc1ccc2oc(=O)c(-c3cccc(O)c3)cc2c1` [CHEMBL1835326], on MAO-B [1], the LiPE is reported as 3.44. Moreover, the pIC50 on MAO-B [2] (setting [7]) is reported as 6.19. For the same compound, on MAO-B [2] (setting [8]), the IC50 was 0.65 µM.

For `Cc1ccc2oc(=O)c(-c3ccccc3O)cc2c1` [CHEMBL1835327], at MAO-B [1], the LiPE is recorded as 4.08. Also, the negative-log IC50 (pIC50) on MAO-B [2] (setting [7]) was 6.92. Also, the IC50 on MAO-B [2] (setting [8]) is 0.12 µM.

In turn, `Cc1cccc(-c2cc3cc(C)ccc3oc2=O)c1` [CHEMBL1835229] gave a LiPE on MAO-B [1] of 4.09. In addition, on MAO-B [2] (setting [7]), the pIC50 was 7.82. Also, the IC50 on MAO-B [2] (setting [8]) is 0.015 µM.

For `COc1ccc2oc(=O)c(-c3ccc(C)cc3)cc2c1` [CHEMBL1835224], the LiPE on MAO-B [1] was 5.35. Also, the pIC50 on MAO-B [2] (setting [7]) is reported as 8.82. On MAO-B [2] (setting [8]), the IC50 was 0.00152 µM.

On MAO-B [1], `COc1cc(OC)cc(-c2cc3cc(C)ccc3oc2=O)c1` [CHEMBL1783715] yielded a LiPE of 4.52. The pIC50 at MAO-B [2] (setting [3]) is recorded as 8.05. In addition, the half-inhibitory concentration (IC50) at MAO-B [2] (setting [4]) is 0.00898 µM.

As to `COc1cc(-c2cc3cc(C)cc(Br)c3oc2=O)cc(OC)c1OC` [CHEMBL1221982], the LiPE on MAO-B [1] stood at 1.09. Moreover, the pIC50 at MAO-B [2] (setting [5]) is 5.31. At MAO-B [2] (setting [6]), the IC50 is 4.89 µM.

Turning to `O=c1oc2c(O)cc(Br)cc2cc1-c1ccc(O)cc1` [CHEMBL1777849], at MAO-B [1], the LiPE is 2.46. The pIC50 on MAO-B [2] (setting [9]) was 4.77. The IC50 on MAO-B [2] (setting [10]) is 16.9 µM.

`Cc1ccc2oc(=O)c(-c3ccccc3Br)cc2c1` [CHEMBL1221929]: the LiPE at MAO-B [1] came to 1.46. Moreover, the pIC50 on MAO-B [2] (setting [5]) is listed as 5.37. Further, the IC50 at MAO-B [2] (setting [6]) is 4.3 µM.

At MAO-B [1], `COc1ccc(-c2c(O)c3cc(C)ccc3oc2=O)cc1Cl` [CHEMBL1934676] had a LiPE of 0.88. The pIC50 at MAO-B [2] (setting [11]) is listed as 4.37. For the same compound, on MAO-B [2] (setting [12]), the IC50 is 42.7 µM.

Take `CC(=O)COc1cccc(-c2cc3cc(C)ccc3oc2=O)c1` [CHEMBL1835328]: the LiPE at MAO-B [1] is 3.80. In addition, the pIC50 at MAO-B [2] (setting [7]) is listed as 6.74. Moreover, the IC50 on MAO-B [2] (setting [8]) was 0.18 µM.

With `Cc1ccc(-c2cc3cc(OC4CCCC4)ccc3oc2=O)cc1` [CHEMBL1835227], the LiPE at MAO-B [1] amounted to 0.14. In addition, the pIC50 at MAO-B [2] (setting [7]) is 4.84. Besides, on MAO-B [2] (setting [8]), the IC50 was 14.5 µM.

`COc1cc(OC)c(Br)c(-c2cc3cc(C)ccc3oc2=O)c1` [CHEMBL1835233] had a LiPE at MAO-B [1] of 0.20. Besides, the pIC50 at MAO-B [2] (setting [7]) is 4.27. The concentration for half-maximal inhibition (IC50) at MAO-B [2] (setting [8]) was 54 µM.

In the case of `COc1ccc(-c2c(O)c3cc(C)ccc3oc2=O)cc1` [CHEMBL1934673], the LiPE on MAO-B [1] was 1.53. Further, on MAO-B [2] (setting [11]), the pIC50 was 4.49. The IC50 on MAO-B [2] (setting [12]) is 32 µM.

Consider `COc1cc(-c2cc3cc(C)ccc3oc2=O)ccc1Br` [CHEMBL1835232], for which the LiPE on MAO-B [1] is 4.41. Further, the pIC50 at MAO-B [2] (setting [7]) is 8.49. In addition, the IC50 at MAO-B [2] (setting [8]) is 0.00325 µM.

`COc1ccc(-c2cc3cc(C)ccc3oc2=O)cc1Br` [CHEMBL1835231]: at MAO-B [1], the LiPE is reported as 5.05. At MAO-B [2] (setting [7]), the negative-log IC50 (pIC50) is given as 9.13. The IC50 at MAO-B [2] (setting [8]) is 0.00074 µM.

Take `O=c1oc2c(O)cc(Br)cc2cc1-c1ccccc1` [CHEMBL1777847]: the LiPE at MAO-B [1] came to 1.45. Further, the pIC50 at MAO-B [2] (setting [9]) is reported as 4.51. For the same compound, the IC50 on MAO-B [2] (setting [10]) was 30.9 µM.

Compound `COc1ccc(-c2cc3cc(C)ccc3oc2=O)cc1OC` [CHEMBL1835230] displayed a LiPE at MAO-B [1] of 5.04. The pIC50 at MAO-B [2] (setting [7]) is 8.56. The IC50 on MAO-B [2] (setting [8]) was 0.00273 µM.
